The subject of one test is mice. Kind of test: Closed head injury in mice: reference memory, Morris water maze. It counts as in vivo. To be noted: Morris water maze after CHI, compared to saline treated controls (Figure 1). The procedure:
Morris Water Maze Teat: the water maze consists of a circular aluminium pool, 1m in diameter and 60cm in depth, filled with water to a depth of 17.5cm. The hidden goal platform is a glass vessel (15cm diameter x 16. 5cm height) placed upside down at a fixed location in the pool, 1cm below the surface of the water. The water temperature is maintained at 24°C and the pool is always placed in the same position in the room to provide the same extra-maze cues. Prior to CHI (as described in Example 3 above), mice were given 3 trials per day for 5 consecutive days to establish a baseline performance - measured as the latency to find the platform from the same start location. Commencing 24hr after CHI, mice were retested daily for 2 weeks in 3 trials per day.
It appears that immediately post-CHI mice forget the location of the goal.

For the next test, the target named is T1, MAO-A (Rattus norvegicus, UniProt P21396).
T1 sequence (P21396 1-526): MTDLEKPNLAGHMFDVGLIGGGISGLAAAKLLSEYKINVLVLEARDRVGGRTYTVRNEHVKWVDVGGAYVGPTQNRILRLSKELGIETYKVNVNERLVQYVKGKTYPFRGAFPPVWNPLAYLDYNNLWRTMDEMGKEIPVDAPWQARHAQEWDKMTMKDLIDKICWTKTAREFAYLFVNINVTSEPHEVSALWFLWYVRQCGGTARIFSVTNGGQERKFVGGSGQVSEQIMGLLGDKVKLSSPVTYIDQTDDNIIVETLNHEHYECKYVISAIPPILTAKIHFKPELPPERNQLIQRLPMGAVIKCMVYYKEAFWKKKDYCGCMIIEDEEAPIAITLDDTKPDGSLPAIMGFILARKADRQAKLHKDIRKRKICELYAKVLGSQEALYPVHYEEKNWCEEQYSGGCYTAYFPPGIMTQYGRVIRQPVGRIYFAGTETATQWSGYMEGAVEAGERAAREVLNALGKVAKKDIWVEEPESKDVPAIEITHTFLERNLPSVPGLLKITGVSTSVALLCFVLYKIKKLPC
Briefly: Inhibition of MAO activity following sub-acute (14 days) administration to rats, MAO-A. It counts as in vivo. Also on record: from tissue; host or cells: brain, liver and intestine of Sprague Dawley rats. To be noted: 20mg/kg daily for 14 days. On the procedure: Male Sabra mice, weighing 45-50g were injected with test compound solutions (prepared in 0.9% saline). Each dose was administered to two or three mice. The mice were sacrificed two hours after drug administration or at a time corresponding to the peak AChE inhibition time (see Table 6). The brain and liver were rapidly dissected and stored in appropriate vials on ice. The tissues were weighed, diluted to 1/20 in sucrose 0.3M and stored at -20°C before performance of the MAO assay described above. The results given in Table 6 relate to measurements made on brain tissue only.
Experiments were done with Spague Dawley male rats. Procedures were repeated as described in Examples 2.1 and 2.2, but drug administration was continued daily for 14 days. At the end of this period animals were sacrificed and MAO levels determined in the brain, liver and intestines. Compound 17 was administered sub-cutaneously or per os at a dose of 20mg/kg.

Counter-ions that a name gives are not always drawn.

In the case of `C#CCNC(C)Cc1cccc(OC(=O)N(C)CC)c1` (stereo not drawn) [Compound 17, 3-(N-Me,N-Etcarbamyloxy)α-methyl, N-propargyl phenethylamine.HCl], the “latency to find the platform” value in the test with mice is listed as “reduction in latency”. For the same molecule, the inhibition at 20 mg/kg on MAO-A (po, Brain) was determined as 59%; against MAO-A (po, Intestine) it was 25%; against MAO-A (po, Liver), 59%; at MAO-A (sc, Brain), 76%; at MAO-A (sc, Intestine), 10%; at MAO-A (sc, Liver), 33%.

A word on the inhibition: it is the relative decrease from the control value, in per cent. Lower therefore signals a response near the control.

Source of the values: patent EP0951284B1, “[…] DERIVATIVES” (priority 1996, dated 1998).
